Data reported in ChEMBL document CHEMBL4130422, “Design, synthesis and biological evaluation of novel C-29 carbamate celastrol derivatives as potent and selective cytotoxic compounds” (Eur J Med Chem, 2017).
pIC50: −log10 of the molar value. The source made the active and inactive calls. The calls are words filed in the database; no cut-off is given here.

Legend:
SK-OV-3 [1] = assay: Antiproliferative activity against human SKOV3 cells after 72 hrs by MTT assay; format: functional, cell-based; conditions: SK-OV-3, 72 h
MIA PaCa-2 = assay: Antiproliferative activity against human MIAPaCa2 cells after 72 hrs by MTT assay; format: functional, cell-based; conditions: MIA PaCa-2, 72 h
BJ = assay: Antiproliferative activity against human BJ cells after 72 hrs by MTT assay; format: cell-based
A549 = assay: Antiproliferative activity against human A549 cells after 72 hrs by MTT assay; format: functional, cell-based; conditions: A549, 72 h
MDA-MB-231 = assay: Antiproliferative activity against human MDA-MB-231cells after 72 hrs by MTT assay; format: functional, cell-based; conditions: MDA-MB-231, 72 h
HT-29 = assay: Antiproliferative activity against human HT-29 cells after 72 hrs by MTT assay; format: functional, cell-based; conditions: HT-29, 72 h
MCF7 = assay: Antiproliferative activity against human MCF7 cells after 72 hrs by MTT assay; format: functional, cell-based; conditions: MCF7, 72 h
SK-OV-3 [2] = assay: Induction of apoptosis in human SKOV3 cells assessed as increase in cleaved caspase-9 expression levels at IC50 after 72 hrs by Western blot analysis; format: functional, cell-based
SK-OV-3 [3] = assay: Synergistic antiproliferative activity against human SKOV3 cells assessed as combination index at 0.25 uM after 72 hrs in presence of 16 uM carboplatin by MTT assay; format: functional
SK-OV-3 [4] = assay: Induction of apoptosis in human SKOV3 cells assessed as increase in cleaved caspase-3 expression levels at IC50 after 72 hrs by Western blot analysis; format: functional, cell-based
SK-OV-3 [5] = assay: Induction of apoptosis in human SKOV3 cells assessed as decrease in procaspase-8 expression levels at IC50 after 72 hrs by Western blot analysis; format: functional, cell-based
SK-OV-3 [6] = assay: Induction of apoptosis in human SKOV3 cells at IC50 by Annexin V-FITC/propidium iodide double-staining-based FACS analysis; format: functional, cell-based; conditions: TDE = time-dependent effect
SK-OV-3 [7] = assay: Synergistic antiproliferative activity against human SKOV3 cells assessed as combination index at 0.5 uM after 72 hrs in presence of 32 uM carboplatin by MTT assay; format: functional
SK-OV-3 [8] = assay: Induction of apoptosis in human SKOV3 cells assessed as increase in Bid expression levels at IC50 after 72 hrs by Western blot analysis; format: functional, cell-based
SK-OV-3 [9] = assay: Induction of apoptosis in human SKOV3 cells assessed as nuclear fragmentation at IC50 after 48 hrs by Hoechst 33342 staining-based fluorescence microscopic method; format: functional, cell-based
SK-OV-3 [10] = assay: Induction of apoptosis in human SKOV3 cells assessed as increase in Bax expression levels at IC50 after 72 hrs by Western blot analysis; format: functional, cell-based
SK-OV-3 [11] = assay: Induction of apoptosis in human SKOV3 cells assessed as nuclear condensation at IC50 after 48 hrs by Hoechst 33342 staining-based fluorescence microscopic method; format: functional, cell-based
SK-OV-3 [12] = assay: Induction of apoptosis in human SKOV3 cells assessed as increase in cleaved caspase-8 expression levels at IC50 after 72 hrs by Western blot analysis; format: functional, cell-based
SK-OV-3 [13] = assay: Synergistic antiproliferative activity against human SKOV3 cells assessed as combination index at 2 uM after 72 hrs in presence of 128 uM carboplatin by MTT assay; format: functional
SK-OV-3 [14] = assay: Induction of apoptosis in human SKOV3 cells assessed as decrease in full-length PARP expression levels at IC50 after 72 hrs by Western blot analysis; format: functional, cell-based
SK-OV-3 [15] = assay: Induction of apoptosis in human SKOV3 cells assessed as decrease in procaspase-9 expression levels at IC50 after 72 hrs by Western blot analysis; format: functional, cell-based
SK-OV-3 [16] = assay: Induction of apoptosis in human SKOV3 cells assessed as formation of apoptotic bodies at IC50 after 48 hrs by Hoechst 33342 staining-based fluorescence microscopic method; format: functional, cell-based
SK-OV-3 [17] = assay: Induction of apoptosis in human SKOV3 cells assessed as decrease in procaspase-3 expression levels at IC50 after 72 hrs by Western blot analysis; format: functional, cell-based
SK-OV-3 [18] = assay: Anticlonogenic activity against human SKOV3 cells assessed as reduction in colony formation efficiency treated for 24 hrs followed by incubation in drug free medium for 12 days by crystal violet staining-based assay; format: functional, cell-based
SK-OV-3 [19] = assay: Synergistic antiproliferative activity against human SKOV3 cells assessed as combination index at 1 uM after 72 hrs in presence of 64 uM carboplatin by MTT assay; format: functional
SK-OV-3 [20] = assay: Induction of apoptosis in human SKOV3 cells assessed as early apoptotic cells at IC50 after 72 by Annexin V-FITC/propidium iodide double-staining-based FACS analysis (reference value: 4.5%); format: functional
SK-OV-3 [21] = assay: Cell cycle arrest in human SKOV3 cells at IC50 at 24 to 72 hrs by propidium iodide staining-based FACS analysis; format: functional
SK-OV-3 [22] = assay: Induction of apoptosis in human SKOV3 cells assessed as cell shrinkage at IC50 after 48 hrs by Hoechst 33342 staining-based fluorescence microscopic method; format: functional
SK-OV-3 [23] = assay: Induction of apoptosis in human SKOV3 cells assessed as increase in cleaved PARP expression levels at IC50 after 72 hrs by Western blot analysis; format: functional, cell-based
SK-OV-3 [24] = assay: Induction of apoptosis in human SKOV3 cells assessed as decrease in Bcl-2 expression levels at IC50 after 72 hrs by Western blot analysis; format: functional, cell-based
SK-OV-3 [25] = assay: Synergistic antiproliferative activity against human SKOV3 cells assessed as combination index at 0.125 uM after 72 hrs in presence of 8 uM carboplatin by MTT assay; format: functional

COC(=O)N[C@]1(C)CC[C@]2(C)CC[C@]3(C)C4=CC(=O)c5c(cc(O)c(O)c5C)[C@]4(C)CC[C@@]3(C)[C@@H]2C1
pIC50 (SK-OV-3 [1]): 5.10
pIC50 (MIA PaCa-2): 5.19
pIC50 (BJ): < 4.52
pIC50 (A549): 5.19

Cc1c(O)c(O)cc2c1CC=C1[C@@]2(C)CC[C@@]2(C)[C@@H]3C[C@](C)(C(=O)O)CC[C@]3(C)CC[C@]12C [DIHYDROCELASTROL]
pIC50 (MIA PaCa-2): 6.14
pIC50 (A549): 5.50

CCOC(=O)N[C@]1(C)CC[C@]2(C)CC[C@]3(C)C4=CC(=O)c5c(cc(O)c(O)c5C)[C@]4(C)CC[C@@]3(C)[C@@H]2C1
pIC50 (MIA PaCa-2): < 5.00
pIC50 (A549): < 5.00

CC1=C(O)C(=O)C=C2C1=CC=C1[C@@]2(C)CC[C@@]2(C)[C@@H]3C[C@](C)(C(=O)O)CC[C@]3(C)CC[C@]12C [CELASTROL]
pIC50 (MDA-MB-231): 5.88
pIC50 (SK-OV-3 [1]): 5.94
pIC50 (HT-29): 5.89
pIC50 (MIA PaCa-2): 6.34
pIC50 (BJ): 5.56
pIC50 (MCF7): 5.87
pIC50 (A549): 5.81

COC(=O)N[C@]1(C)CC[C@]2(C)CC[C@]3(C)C4=CC(=O)c5c(cc(OC(C)=O)c(OC(C)=O)c5C)[C@]4(C)CC[C@@]3(C)[C@@H]2C1
Activity (SK-OV-3 [2]): inactive
CI (SK-OV-3 [3]): 0.9285
pIC50 (MDA-MB-231): 5.87
Activity (SK-OV-3 [4]): Active
Activity (SK-OV-3 [5]): Active
pIC50 (SK-OV-3 [1]): 6.27
pIC50 (HT-29): 5.81
pIC50 (MIA PaCa-2): 6.48
Activity (SK-OV-3 [6]): Tde
pIC50 (BJ): 5.43
pIC50 (MCF7): 5.77
CI (SK-OV-3 [7]): 0.6273
Activity (SK-OV-3 [8]): inactive
Activity (SK-OV-3 [9]): Active
Activity (SK-OV-3 [10]): inactive
Activity (SK-OV-3 [11]): Active
Activity (SK-OV-3 [12]): Active
CI (SK-OV-3 [13]): 1.076
Activity (SK-OV-3 [14]): Active
Activity (SK-OV-3 [15]): inactive
Activity (SK-OV-3 [16]): Active
pIC50 (A549): 6.06
Activity (SK-OV-3 [17]): Active
Activity (SK-OV-3 [18]): Dose-dependent effect
CI (SK-OV-3 [19]): 0.7863
Activity (SK-OV-3 [20]): 29.9%
Activity (SK-OV-3 [21]): inactive
Activity (SK-OV-3 [22]): Active
Activity (SK-OV-3 [23]): Active
Activity (SK-OV-3 [24]): inactive
CI (SK-OV-3 [25]): 1.112

COC(=O)N[C@]1(C)CC[C@]2(C)CC[C@]3(C)C4=CC(=O)c5c(cc(OC)c(O)c5C)[C@]4(C)CC[C@@]3(C)[C@@H]2C1
pIC50 (MIA PaCa-2): < 5.00
pIC50 (A549): < 5.00

CC(=O)Oc1cc2c(c(C)c1OC(C)=O)C(=O)C=C1C2(C)CC[C@@]2(C)[C@@H]3C[C@](C)(N=C=O)CC[C@]3(C)CC[C@]12C (single isomer, unassigned)
pIC50 (MIA PaCa-2): < 5.00
pIC50 (A549): < 5.00

CC1=C(O)C(=O)C=C2C1=CC=C1[C@@]2(C)CC[C@@]2(C)[C@@H]3C[C@](C)(NC(=O)OCC(C)(C)CO)CC[C@]3(C)CC[C@]12C
pIC50 (MIA PaCa-2): 6.00
pIC50 (A549): 5.80

CC(=O)Oc1cc2c(c(C)c1OC(C)=O)CC=C1[C@@]2(C)CC[C@@]2(C)[C@@H]3C[C@](C)(C(=O)O)CC[C@]3(C)CC[C@]12C
pIC50 (MIA PaCa-2): 6.25
pIC50 (A549): 5.66

CC1=C(O)C(=O)C=C2C1=CC=C1[C@@]2(C)CC[C@@]2(C)[C@@H]3C[C@](C)(NC(=O)OCC(C)C)CC[C@]3(C)CC[C@]12C
pIC50 (MIA PaCa-2): 6.10
pIC50 (A549): 5.65

CC(=O)Oc1cc2c(c(C)c1OC(C)=O)C(=O)C=C1[C@@]2(C)CC[C@@]2(C)[C@@H]3C[C@](C)(CO)CC[C@]3(C)CC[C@]12C
pIC50 (MIA PaCa-2): 6.32
pIC50 (A549): 5.73

CC(=O)Oc1cc2c(c(C)c1OC(C)=O)C(=O)C=C1[C@@]2(C)CC[C@@]2(C)[C@@H]3C[C@](C)(C(N)=O)CC[C@]3(C)CC[C@]12C
pIC50 (MIA PaCa-2): 6.44
pIC50 (A549): 5.90

CC(=O)Oc1cc2c(c(C)c1OC(C)=O)CC=C1[C@@]2(C)CC[C@@]2(C)[C@@H]3C[C@](C)(N=C=O)CC[C@]3(C)CC[C@]12C
pIC50 (MIA PaCa-2): 5.85
pIC50 (A549): 5.54

CC(=O)Oc1cc2c(c(C)c1OC(C)=O)C(=O)C=C1[C@@]2(C)CC[C@@]2(C)[C@@H]3C[C@](C)(C=O)CC[C@]3(C)CC[C@]12C
pIC50 (MIA PaCa-2): 6.42
pIC50 (A549): 5.56

CC(=O)Oc1cc2c(c(C)c1OC(C)=O)C(=O)C=C1C2(C)CC[C@@]2(C)[C@@H]3C[C@](C)(C(=O)O)CC[C@]3(C)CC[C@]12C (single isomer, unassigned)
pIC50 (MIA PaCa-2): < 5.00
pIC50 (A549): < 5.00

COC(=O)N[C@]1(C)CC[C@]2(C)CC[C@]3(C)C4=CC=C5C(=CC(=O)C(O)=C5C)[C@]4(C)CC[C@@]3(C)[C@@H]2C1
pIC50 (MIA PaCa-2): 6.24
pIC50 (A549): 5.76

CCCCCOC(=O)N[C@]1(C)CC[C@]2(C)CC[C@]3(C)C4=CC=C5C(=CC(=O)C(O)=C5C)[C@]4(C)CC[C@@]3(C)[C@@H]2C1
pIC50 (MDA-MB-231): 6.28
pIC50 (SK-OV-3 [1]): 6.35
pIC50 (HT-29): 5.99
pIC50 (MIA PaCa-2): 6.49
pIC50 (BJ): 6.06
pIC50 (MCF7): 6.23
pIC50 (A549): 5.98

CCOC(=O)N[C@]1(C)CC[C@]2(C)CC[C@]3(C)C4=CC=C5C(=CC(=O)C(O)=C5C)[C@]4(C)CC[C@@]3(C)[C@@H]2C1
pIC50 (MIA PaCa-2): 6.11
pIC50 (A549): 5.71

CCOC(=O)N[C@]1(C)CC[C@]2(C)CC[C@]3(C)C4=CC(=O)c5c(cc(OC)c(OC)c5C)[C@]4(C)CC[C@@]3(C)[C@@H]2C1
pIC50 (MIA PaCa-2): < 5.00
pIC50 (A549): < 5.00

CCCOC(=O)N[C@]1(C)CC[C@]2(C)CC[C@]3(C)C4=CC=C5C(=CC(=O)C(O)=C5C)[C@]4(C)CC[C@@]3(C)[C@@H]2C1
pIC50 (MIA PaCa-2): 6.40
pIC50 (A549): 6.00

CC1=C(O)C(=O)C=C2C1=CC=C1[C@@]2(C)CC[C@@]2(C)[C@@H]3C[C@](C)(N=C=O)CC[C@]3(C)CC[C@]12C
pIC50 (MIA PaCa-2): 6.28
pIC50 (A549): 5.61
